23 molecules from BindingDB's records for doi:10.1021/acs.jmedchem.0c01882 (Reviral, 2021) can be followed below.

pIC50: −log10 of the molar value.

This assay in a line: Inhibition of Respiratory syncytial virus A2 fusion protein expressed in HEK293T cells harboring GAL4-NF-kappaB assessed as reduction in cell-cell fusion by luciferase assay.
The pIC50 is −log10 of the IC50, conventionally taken in molar units. As for `CC(C)CCn1c(CN2C(=O)C3(CC3)c3ccccc32)nc2cc(CN)ccc21`, the negative logarithm of the IC50 (pIC50) is 9.40.

With `CC(C)CCn1c(CN2C(=O)C3(CC3)c3c(Cl)cccc32)nc2cc(CN)ccc21`, the pIC50 is 7.96.

Take `CC(C)CCn1c(CN2C(=O)C3(CC3)c3cc(F)ccc32)nc2cc(CN)ccc21`: the pIC50 was 9.15.

`CC(C)CCn1c(CN2C(=O)C3(CC3)c3cc(Cl)ccc32)nc2cc(CN)ccc21`: the pIC50 is 8.35.

As to `CC(C)CCn1c(CN2C(=O)C3(CC3)c3ccc(F)cc32)nc2cc(CN)ccc21`, the pIC50 is 9.30.

Regarding `CC(C)CCn1c(CN2C(=O)C3(CC3)c3ccc(Cl)cc32)nc2cc(CN)ccc21`, the negative-log IC50 (pIC50) was 8.92.

As for `CC(C)CCn1c(CN2C(=O)C3(CC3)c3cccc(Cl)c32)nc2cc(CN)ccc21`, the pIC50 was 7.33.

In the case of `CC(C)CCn1c(CN2C(=O)C3(CC3)c3cccc(F)c32)nc2cc(CN)ccc21`, the pIC50 was 8.89.

For `CS(=O)(=O)CCCn1c(CN2C(=O)C3(CC3)c3ccc(F)cc32)nc2cc(CN)ccc21`, the pIC50 was 8.59.

`NCc1ccc2c(c1)nc(CN1C(=O)C3(CC3)c3ccc(F)cc31)n2CCCCO`: the pIC50 was 8.82.

On to `NCc1ccc2c(c1)nc(CN1C(=O)C3(CC3)c3cccc(F)c31)n2CCCC(F)(F)F`, for which the pIC50 was 9.00.

`NCc1ccc2c(c1)nc(CN1C(=O)C3(CC3)c3ccc(F)cc31)n2C1CCC(O)CC1` (stereo not drawn): the pIC50 was 8.59.

In the case of `NCc1ccc2c(c1)nc(CN1C(=O)C3(CC3)c3ccc(F)cc31)n2C1CCOCC1`, the negative logarithm of the IC50 (pIC50) was 8.92.

Consider `N=C(N)c1ccc2c(c1)nc(CN1C(=O)C3(CC3)c3ccc(F)cc31)n2CCCC(F)(F)F`, for which the pIC50 is 8.52.

Regarding `CCNC(=N)c1ccc2c(c1)nc(CN1C(=O)C3(CC3)c3ccc(F)cc31)n2CCCC(F)(F)F`, the pIC50 is 6.19.

Turning to `N=C(N)NCc1ccc2c(c1)nc(CN1C(=O)C3(CC3)c3ccc(F)cc31)n2CCCC(F)(F)F`, the pIC50 was 6.74.

As to `NC(=O)c1ccc2c(c1)nc(CN1C(=O)C3(CC3)c3ccc(F)cc31)n2CCCC(F)(F)F`, the pIC50 was 7.15.

Consider `O=C(O)c1ccc2c(c1)nc(CN1C(=O)C3(CC3)c3ccc(F)cc31)n2CCCC(F)(F)F`, for which the pIC50 was under 4.60.

Regarding `CS(=O)(=O)c1ccc2c(c1)nc(CN1C(=O)C3(CC3)c3ccc(F)cc31)n2CCCC(F)(F)F`, the pIC50 was 5.97.

`CC(=O)NCc1ccc2c(c1)nc(CN1C(=O)C3(CC3)c3ccc(F)cc31)n2CCCC(F)(F)F`: the pIC50 is 6.44.

Take `O=C1N(Cc2nc3ccccc3n2CCCC(F)(F)F)c2cc(F)ccc2C12CC2`: the pIC50 was 7.43.

Turning to `O=C1N(Cc2nc3cc(Cl)ccc3n2CCCC(F)(F)F)c2cc(F)ccc2C12CC2`, the pIC50 is 8.21.

As for `NCc1ccc2c(c1)nc(CN1C(=O)C3(CC3)c3ccc(F)cc31)n2CCCC(F)(F)F` [Sisunatovir], the pIC50 was 9.05.
